Five molecules from patent publication US11318126B2, “Composition for activating neurogenesis” (KYOTO UNIVERSITY, priority 2016, dated 2022) can be followed below.

Data set [1] concerns the target T1, DYRK1A (Homo sapiens, UniProt Q13627). Description: in-vitro kinase assay against DYRK1A. The following applies: for IC50: DYRK peptide as substrate, 10 μM ATP. It is filed as biochemical. The method, then:
The inhibitory activity of Compounds 4 and 10 against DYRK1A was examined through in-vitro kinase assay (in-vitro kinase analysis).
The inhibitory activity of Compounds 4 and 10 against DYRK1A was examined in the presence of DYRK1A protein using a DYRK peptide as a substrate under the condition of 10 μM ATP.

In data set [2] the target is T1, DYRK1A. Briefly: Western blotting of tau protein phosphorylation (threonine 212) in cultured cells expressing tau protein and DYRK1A protein. It is filed as cell-based. The note with it: 0.3 μM, 1 μM, 3 μM, or 10 μM; antibody to phosphorylated threonine 212 of tau. The method, then:
Tau protein, which is a substrate of a target kinase, was overexpressed in cells in the presence of Compound 4 or 10 at a concentration of 0.3 μM, 1 μM, 3 μM, or 10 μM, and the inhibitory activity of Compounds 4 and 10 was examined using the phosphorylation of the tau protein as an index.
FIG. 2 is an example of the result of Western blotting analysis of cultured cells in which the expression of both tau protein and DYRK1A protein was induced in the presence of Compound 4 or 10 at a concentration of 0.3 μM, 1 μM, 3 μM, or 10 μM, using an antibody that specifically recognizes the phosphorylated threonine residue at 212-position of tau protein was used to analyze.

In another data set the test system is Mouse neural stem cells. Briefly: BrdU uptake in cultured mouse neural stem cells (Arrayscan). In kind it is cell-based. The following applies: for incorporation of BrdU into neural stem cells (ratio of BrdU-positive cells relative to control): 1.25 μM, 2.5 μM, or 5 μM. The method, then:
Mouse neural stem cells were treated with Compound 4 or 10, and then neural stem cell proliferating activity was examined using, as an index, uptake of 5-bromo-2′-deoxyuridine (BrdU), which is a nucleoside analog to be used as a proliferation index.
Specifically, isolated neural stem cells were cultured in the presence of BrdU and Compound 4 or 10 at a concentration of 1.25 μM, 2.5 μM, or 5 μM, so that proliferating cells were labeled. After the cells were fixed, BrdU was detected by an anti-BrdU antibody, and the ratio of proliferating cells that had incorporated the BrdU was quantitatively analyzed using Arrayscan (Thermo Scientific). […] In FIG. 3, “Control” indicates the results from adding no compounds, and “Solvent” indicates dimethyl sulfoxide (DMSO).

Data set [3] concerns cyclin D1. Description: Western blotting of cyclin D1 expression in cultured mouse neural stem cells. The following applies: relative to control. It is filed as cell-based. The method, then:
Mouse neural stem cells were treated with Compound 4, 6, or 10, and the expression level of cyclin D1, which positively controls cell proliferation, was examined through Western blotting. FIGS. 4A and 4B show the results. In FIGS. 4A and 4B, “Control” indicates the results from adding no compounds, and “Solvent” indicates dimethyl sulfoxide (DMSO).
A general note: Immunoblotting shows a protein as a band on a membrane.

For data set [4], the system named is neural stem cells present in the dentate gyrus of the hippocampus. Description: neurogenesis in the dentate gyrus of the hippocampus after 10-day administration. In kind it is in vivo, rodent. The note with it: versus solvent administered group. The method, then:
After 10-day long administration of Compound 4 to a rodent, BrdU was administered thereto, and the number of proliferating cells was quantitatively evaluated. […] In FIGS. 5B and 5C, “Solvent” indicates the results from adding no compound. FIG. 5A is a representative images of thin sections of the dentate gyrus of the hippocampus, and the image of Dapi staining (nucleus staining), the image of doublecortin (DCX) staining, and the image of BrdU staining are shown in the order from top to bottom. FIG. 5B is an example of a graph showing the number of BrdU-positive cells in the dentate gyrus of the hippocampus. FIG. 5C is an example of a graph showing the number of immature neurons in the dentate gyrus of the hippocampus as a relative value determined based on the result from the solvent sample taken as 1.

Data set [5] has as its system neural stem cells isolated Down syndrome model mice (Ts1Cje). Briefly: proliferation (BrdU-positive ratio) of neural stem cells from Down syndrome model mice. It is filed as cell-based, mouse. The following applies: Ts1Cje versus wild-type. The method, then: Neural stem cells were prepared from wild-type mice and Down syndrome model mice (Ts1Cje: the same applies hereinafter), and the effect of Compound 4 on the proliferation of neural stem cells isolated Down syndrome model mice was examined. […] In FIG. 6, “Solvent” indicates the results from no adding compound.

In data set [6] the test system is Down syndrome model mice (Ts1Cje). Briefly: neurogenesis in the dentate gyrus of the hippocampus of Down syndrome model mice. The note with it: 8-week old Down syndrome model mice. In kind it is in vivo, mouse. The method, then:
First, a solvent or Compound 4 was administered to 8-week old wild-type mice and 8-week old Down syndrome model mice, and the effect on neurogenesis in the dentate gyrus of the hippocampus was examined.

Data set [7] relates to Down syndrome model mice (fetus). Description: thickness of the cerebral cortex of Down syndrome model fetuses after oral administration to pregnant mice. In kind it is in vivo, mouse. The note with it: tenth to fifteenth day of fetal life. The method, then: Moreover, Compound 4 was orally administered to pregnant mice carrying Down syndrome model mice from the tenth day to fifteenth day of fetal life, and the thickness of the cerebral cortex was measured at the fifteenth day of fetal life. […] In FIGS. 7A and 7B, “Solvent” indicates the results from adding no compound.

The next data set concerns Down syndrome model mice. Briefly: learning and memory tests (Y maze, Barnes maze, fear conditioning) after prenatal administration. It is filed as in vivo, mouse. The note with it: 10 mg/kg oral once a day to pregnant mice from tenth day of fetal life until birth; tested at 8 weeks. The method, then: Compound 4 (10 mg/kg) or a solvent was orally administered to pregnant mice carrying Down syndrome model mice once a day from the tenth day of fetal life until birth. After birth, at the age of 8 weeks, three types of tests (A. Y maze test for spontaneous alteration behavior, B. Barnes maze test for spatial memory, and C. fear conditioning test) were performed successively. FIGS. 8A to 8C show the results. In FIGS. 8A to 8C, “Solvent” indicates the results from adding no compound.

In data set [8] the test system is Facial nerve palsy model mice. Description: facial nerve palsy model, paralysis scores. It is filed as in vivo, ICR mouse. The note with it: 10 mg/kg every day from an hour before the operation. The method, then:
A facial nerve trunk (3 mm) of a rodent (ICR mouse; 6 to 8 weeks old) was extracted and compressed using a Mosquito forceps with a width of 1 mm for 30 seconds. Facial nerve palsy model mice were thus produced. Compound 4 (10 mg/kg) was administered every day from an hour before the operation (day 0), and paralysis scores relating to nictitation (“no eye-opening” to “cured”), a nose (“extended” to “cured”), and whiskers (“no movement” to “cured”) were evaluated according to four levels. […] In FIG. 9A, “Solvent” indicates the results from adding no compound.

Data set [9] concerns zebrafish spinal cord injury. Description: zebrafish spinal cord injury model, migration distance by behavior analysis. It is filed as in vivo. The following applies: in breeding water, sixth to eighth day after fertilization. The text has this: On the fifth day after fertilization, the zebrafish spinal cord was injured using an ophthalmic scalpel, and the zebrafish was bred in breeding water containing Compound 4 until the eighth day after fertilization.

The subject of data set [10] is cyclin D1. Description: Western blotting of cyclin D1 expression in HEK293 cells over time. In kind it is cell-based. The following applies: treated over time. The method, then:
HEK293 cells were treated with Compound 4 or 10 over time, and the expression level of cyclin D1 was examined through Western blotting.

Data set [11] relates to fibroblasts derived from human skin. Description: flow cytometry cell cycle analysis of fibroblasts derived from human skin. It is filed as cell-based. The note with it: 48 hours treatment. The method, then:
Next, fibroblasts derived from human skin were treated with a solvent or Compound 4 for 48 hours, and the cell cycle was analyzed through flow cytometry. […] It is considered that this is because Compound 4 stabilized cyclin D1 and thus stimulated the progression of the cell cycle from the G1 phase to the subsequent S phase and G2/M phase.
For orientation: A flow cytometer gives signals particle by particle.

As for `c1cc(-c2ccc3[nH]ncc3c2)c2cccnc2c1` [Compound 1, 5-(5-Quinolyl)indazole], the melting point is 255 °C (dec.).
Regarding `c1cncc(-c2ccc3[nH]ncc3c2)c1` [Compound 4], the IC50 at DYRK1A [1] amounted to 0.0556 µM. In addition, the “inhibitory effect against the phosphorylation of tau protein” value (shortened to “inhibitory effect”) against DYRK1A [2] is on record as “exhibited a high inhibitory effect”. The “incorporation of BrdU into neural stem cells (ratio of BrdU-positive cells relative to control)” value in the data set on Mouse neural stem cells is recorded as “increased the amount of incorporation of BrdU”. The “expression level of cyclin D1” value in the data set on cyclin D1 [3] is “significantly high”. In data set [4], the “number of immature neurons in the dentate gyrus of the hippocampus” value is recorded as “significantly larger” and the “number of proliferating cells (BrdU-positive) in the dentate gyrus of the hippocampus” value is “significantly larger”. Further, the “ratio of BrdU-positive cells in neural stem cells from Down syndrome model mice” value in data set [5] was “compensated for the reduced proliferation”. In data set [6], the “number of proliferating cells in dentate gyrus of the hippocampus” value is reported as “compensated for the reduced neurogenesis”. Moreover, the “thickness of cortical layers” value in data set [7] is “compensated for the cerebral cortex with a reduced thickness”. Besides, the “cognitive function (Y maze, Barnes maze, fear conditioning tests)” value in the data set with Down syndrome model mice was “improved the cognition function”. Moreover, the “paralysis scores (nictitation, nose, whiskers)” value in data set [8] is recorded as “tended to promote recovery”. In addition, the “migration distance after spinal cord injury” value in data set [9] is reported as “migration distance was recovered”. The “protein level of cyclin D1” value in the data set on cyclin D1 [10] is “increased (i.e. the cyclin D1 was stabilized) in a treatment time dependent manner”. In addition, in [11], the “ratio of cell in the G2/M phase of the cell cycle” value is recorded as “increased” and the “ratio of cells in the G1 phase of the cell cycle” value was “decreased”.
Turning to `c1ccc2c(-c3ccc4[nH]ncc4c3)cncc2c1` [Compound 6], the “inhibitory activity against DYRK1A” value at DYRK1A [1] (same experiment as Compounds 4 and 10) is “lower than that of Compounds 4 and 10”. The “inhibitory effect” value at DYRK1A [2] was “showed the same tendency as Compounds 4 and 10”. Besides, in the data set with Mouse neural stem cells (2.5 μM and 5 μM), the “proliferation of cultured neural stem cells” value is recorded as “promoted the proliferation of cultured neural stem cells”. For the same molecule, in the data set on cyclin D1 [3], the “expression level of cyclin D1” value is reported as “significantly high”.
Take `c1cncc(Nc2cccc3ncccc23)c1` [Compound 8, 5-(3-Pyridylamino)quinoline]: the melting point was 180 °C (dec.).
In turn, `c1cnc2ccc(-c3ccncc3)cc2c1` [Compound 10] returned an IC50 on DYRK1A [1] of 0.0597 µM. In addition, the “inhibitory effect” value on DYRK1A [2] is “exhibited a high inhibitory effect”. For the same molecule, the “incorporation of BrdU into neural stem cells (ratio of BrdU-positive cells relative to control)” value in the data set with Mouse neural stem cells is on record as “increased the amount of incorporation of BrdU”. Moreover, in the data set on cyclin D1 [3], the “expression level of cyclin D1” value is “significantly high”. In addition, the “protein level of cyclin D1” value in the data set on cyclin D1 [10] is “increased (i.e. the cyclin D1 was stabilized) in a treatment time dependent manner”.

For orientation: melting point means the temperature, or range, at which the solid turns liquid. The term IC50 denotes the concentration needed to halve the response being measured. Read a high IC50 as a need for much substance.
